Like-named read-outs stand apart in the source and are kept apart here.
Legend:
Experiment in all cases: SelectScreen kinase specificity survey
Format in all cases: biochemical
[1] = target: T1, PRKCB1 (PKC beta I) (Homo sapiens, UniProt P05771); details: estimated, abridged dose response curve, read-out: Kinase inhibitory activity EC50
T1 construct: purchased Invitrogen (SelectScreen platform)
Summary of the method: (§1)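 With 100 micromolar ATP present, substrate phosphorylation by each panel kinase was tracked optically against an uninhibited baseline. Graded inhibitor, added in 5 steps, produced a sigmoid curve, and a Hill equation with four parameters was fitted to it to give an estimated EC50.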

[2] = target: T2, ABL1 G250E (Homo sapiens, UniProt P00519, G250E); details: estimated, abridged dose response curve, read-out: Kinase inhibitory activity EC50
T2 construct: purchased Invitrogen (SelectScreen platform)
Summary of the method: as §1

[3] = target: T3, CSK (Homo sapiens, UniProt P41240); details: estimated, abridged dose response curve, read-out: Kinase inhibitory activity EC50
T3 construct: purchased Invitrogen (SelectScreen service)
Summary of the method: as §1

[4] = target: T4, MAP4K5 (KHS1) (Homo sapiens, UniProt Q9Y4K4); details: estimated, abridged dose response curve, read-out: Kinase inhibitory activity EC50
T4 construct: purchased Invitrogen (SelectScreen platform)
Summary of the method: as §1

[5] = target: T5, ADRBK1 (BARK1, GRK2) (Homo sapiens, UniProt P25098)
T5 construct: purchased Invitrogen (SelectScreen platform)
T5 sequence (P25098 whole entry): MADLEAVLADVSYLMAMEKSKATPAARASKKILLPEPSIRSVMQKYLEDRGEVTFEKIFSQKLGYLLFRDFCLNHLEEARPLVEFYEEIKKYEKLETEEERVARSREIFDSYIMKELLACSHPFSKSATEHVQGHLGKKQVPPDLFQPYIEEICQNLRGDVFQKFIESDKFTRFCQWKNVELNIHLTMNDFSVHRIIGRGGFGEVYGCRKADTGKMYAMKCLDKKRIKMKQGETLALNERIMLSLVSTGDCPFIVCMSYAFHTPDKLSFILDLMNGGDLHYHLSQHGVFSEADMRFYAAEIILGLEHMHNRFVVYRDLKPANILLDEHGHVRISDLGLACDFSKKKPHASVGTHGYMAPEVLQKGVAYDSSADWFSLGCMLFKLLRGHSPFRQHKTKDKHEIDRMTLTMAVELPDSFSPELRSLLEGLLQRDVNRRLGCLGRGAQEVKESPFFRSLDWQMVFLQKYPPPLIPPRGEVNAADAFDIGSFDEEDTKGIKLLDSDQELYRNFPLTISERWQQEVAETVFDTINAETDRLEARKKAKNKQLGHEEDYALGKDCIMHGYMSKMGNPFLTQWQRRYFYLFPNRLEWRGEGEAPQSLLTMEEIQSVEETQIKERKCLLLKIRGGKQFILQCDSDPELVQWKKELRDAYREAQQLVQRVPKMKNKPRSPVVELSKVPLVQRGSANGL
Summary of the method: as §1

[6] = target: T6, CDK2/cyclin A (Homo sapiens, UniProt P24941); details: estimated, abridged dose response curve, read-out: Kinase inhibitory activity EC50
T6 construct: purchased Invitrogen (SelectScreen platform)
Summary of the method: as §1

[7] = target: T7, RET Y791F (Homo sapiens, UniProt P07949, Y791F); details: estimated, abridged dose response curve, read-out: Kinase inhibitory activity EC50
T7 construct: purchased Invitrogen (SelectScreen)
Summary of the method: as §1

[8] = target: T8, JAK2 JH1 JH2 (Homo sapiens, UniProt O60674); details: estimated, abridged dose response curve, read-out: Kinase inhibitory activity EC50
T8 construct: JAK2 JH1 JH2; purchased Invitrogen (SelectScreen platform)
Summary of the method: as §1

[9] = target: T9, CAMK4 (CaMKIV) (Homo sapiens, UniProt Q16566); details: estimated, abridged dose response curve, read-out: Kinase inhibitory activity EC50
T9 construct: purchased Invitrogen, Inc. (SelectScreen platform)
Summary of the method: as §1

[10] = target: T10, PTK6 (Brk) (Homo sapiens, UniProt Q13882); details: estimated, abridged dose response curve, read-out: Kinase inhibitory activity EC50
T10 construct: purchased Invitrogen (SelectScreen)
Summary of the method: as §1

[11] = target: T11, CSNK1G1 (CK1 gamma 1) (Homo sapiens, UniProt Q9HCP0); details: estimated, abridged dose response curve, read-out: Kinase inhibitory activity EC50
T11 construct: purchased Invitrogen (SelectScreen platform)
T11 sequence (Q9HCP0 whole entry): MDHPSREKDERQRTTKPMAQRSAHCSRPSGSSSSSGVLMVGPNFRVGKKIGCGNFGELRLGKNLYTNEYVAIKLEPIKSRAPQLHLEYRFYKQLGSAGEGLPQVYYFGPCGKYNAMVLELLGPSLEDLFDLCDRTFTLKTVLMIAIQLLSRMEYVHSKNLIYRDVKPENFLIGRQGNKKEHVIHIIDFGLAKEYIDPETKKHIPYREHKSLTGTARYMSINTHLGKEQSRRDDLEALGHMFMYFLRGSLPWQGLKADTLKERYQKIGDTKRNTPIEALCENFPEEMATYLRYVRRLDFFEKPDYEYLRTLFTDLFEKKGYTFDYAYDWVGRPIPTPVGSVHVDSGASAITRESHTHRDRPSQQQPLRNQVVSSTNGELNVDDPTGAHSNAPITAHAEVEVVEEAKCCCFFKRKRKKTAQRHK
Summary of the method: as §1

[12] = target: T12, PAK6 (Homo sapiens, UniProt Q9NQU5); details: estimated, abridged dose response curve, read-out: Kinase inhibitory activity EC50
T12 construct: purchased Invitrogen (SelectScreen platform)
Summary of the method: as §1

[13] = target: T13, CDK5/p25 (Homo sapiens, UniProt Q00535); details: estimated, abridged dose response curve, read-out: Kinase inhibitory activity EC50
T13 construct: purchased Invitrogen (SelectScreen platform)
T13 sequence (Q00535 whole entry): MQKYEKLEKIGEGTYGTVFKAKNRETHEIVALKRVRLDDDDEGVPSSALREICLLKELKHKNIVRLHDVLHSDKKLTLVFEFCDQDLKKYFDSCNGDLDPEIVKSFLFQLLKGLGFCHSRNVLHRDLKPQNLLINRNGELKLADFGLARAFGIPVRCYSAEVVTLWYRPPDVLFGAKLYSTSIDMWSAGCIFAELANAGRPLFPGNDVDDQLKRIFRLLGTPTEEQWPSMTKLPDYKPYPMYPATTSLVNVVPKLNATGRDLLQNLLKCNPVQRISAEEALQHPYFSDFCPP
T13 sequence (Q15078 99-307 partner limits assumed): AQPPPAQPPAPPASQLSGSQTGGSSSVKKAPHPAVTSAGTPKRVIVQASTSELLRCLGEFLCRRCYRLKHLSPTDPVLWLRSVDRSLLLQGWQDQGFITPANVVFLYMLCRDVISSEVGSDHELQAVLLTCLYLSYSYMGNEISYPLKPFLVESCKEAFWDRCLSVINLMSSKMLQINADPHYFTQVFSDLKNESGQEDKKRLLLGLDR
Summary of the method: as §1

[14] = target: T14, CDK1/cyclin B (CDC2) (Homo sapiens, UniProt P06493); details: estimated, abridged dose response curve, read-out: Kinase inhibitory activity EC50
T14 construct: purchased Invitrogen (SelectScreen platform)
Summary of the method: as §1

[15] = target: T15, FGFR2 (Homo sapiens, UniProt P21802); details: estimated, abridged dose response curve, read-out: Kinase inhibitory activity EC50
T15 construct: purchased Invitrogen (SelectScreen platform)
Summary of the method: as §1

[16] = target: T16, PRKCD (PKC delta) (Homo sapiens, UniProt Q05655); details: estimated, abridged dose response curve, read-out: Kinase inhibitory activity EC50
T16 construct: purchased Invitrogen, Inc. (SelectScreen platform)
Summary of the method: as §1

[17] = target: T17, PRKG1 (PKG1) (Homo sapiens, UniProt Q13976); details: estimated, abridged dose response curve, read-out: Kinase inhibitory activity EC50
T17 construct: purchased Invitrogen, Inc. (SelectScreen platform)
Summary of the method: as §1

[18] = target: T18, PRKCZ (PKC zeta) (Homo sapiens, UniProt Q05513); details: estimated, abridged dose response curve, read-out: Kinase inhibitory activity EC50
T18 construct: purchased Invitrogen, Inc. (SelectScreen platform)
T18 sequence (Q05513 whole entry): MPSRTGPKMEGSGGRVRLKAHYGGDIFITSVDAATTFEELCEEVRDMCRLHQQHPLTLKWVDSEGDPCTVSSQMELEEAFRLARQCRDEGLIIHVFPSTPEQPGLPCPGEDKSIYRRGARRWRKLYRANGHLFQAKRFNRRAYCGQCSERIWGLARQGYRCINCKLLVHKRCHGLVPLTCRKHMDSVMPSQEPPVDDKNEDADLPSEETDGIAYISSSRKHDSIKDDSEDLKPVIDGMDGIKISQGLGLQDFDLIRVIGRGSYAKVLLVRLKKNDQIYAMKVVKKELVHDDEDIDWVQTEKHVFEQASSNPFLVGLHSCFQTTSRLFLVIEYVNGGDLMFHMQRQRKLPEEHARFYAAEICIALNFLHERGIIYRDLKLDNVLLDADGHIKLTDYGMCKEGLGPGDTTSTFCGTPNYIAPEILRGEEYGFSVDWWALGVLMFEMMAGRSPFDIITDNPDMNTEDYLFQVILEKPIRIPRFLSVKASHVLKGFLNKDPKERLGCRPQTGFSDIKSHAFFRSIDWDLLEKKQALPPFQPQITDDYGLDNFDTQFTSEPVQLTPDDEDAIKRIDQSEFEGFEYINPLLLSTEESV
Summary of the method: as §1

[19] = target: T19, EGFR (ErbB1) L861Q (Homo sapiens, UniProt P00533, L861Q); details: estimated, abridged dose response curve, read-out: Kinase inhibitory activity EC50
T19 construct: purchased Invitrogen (SelectScreen service)
T19 sequence (P00533 25-1210 L861Q): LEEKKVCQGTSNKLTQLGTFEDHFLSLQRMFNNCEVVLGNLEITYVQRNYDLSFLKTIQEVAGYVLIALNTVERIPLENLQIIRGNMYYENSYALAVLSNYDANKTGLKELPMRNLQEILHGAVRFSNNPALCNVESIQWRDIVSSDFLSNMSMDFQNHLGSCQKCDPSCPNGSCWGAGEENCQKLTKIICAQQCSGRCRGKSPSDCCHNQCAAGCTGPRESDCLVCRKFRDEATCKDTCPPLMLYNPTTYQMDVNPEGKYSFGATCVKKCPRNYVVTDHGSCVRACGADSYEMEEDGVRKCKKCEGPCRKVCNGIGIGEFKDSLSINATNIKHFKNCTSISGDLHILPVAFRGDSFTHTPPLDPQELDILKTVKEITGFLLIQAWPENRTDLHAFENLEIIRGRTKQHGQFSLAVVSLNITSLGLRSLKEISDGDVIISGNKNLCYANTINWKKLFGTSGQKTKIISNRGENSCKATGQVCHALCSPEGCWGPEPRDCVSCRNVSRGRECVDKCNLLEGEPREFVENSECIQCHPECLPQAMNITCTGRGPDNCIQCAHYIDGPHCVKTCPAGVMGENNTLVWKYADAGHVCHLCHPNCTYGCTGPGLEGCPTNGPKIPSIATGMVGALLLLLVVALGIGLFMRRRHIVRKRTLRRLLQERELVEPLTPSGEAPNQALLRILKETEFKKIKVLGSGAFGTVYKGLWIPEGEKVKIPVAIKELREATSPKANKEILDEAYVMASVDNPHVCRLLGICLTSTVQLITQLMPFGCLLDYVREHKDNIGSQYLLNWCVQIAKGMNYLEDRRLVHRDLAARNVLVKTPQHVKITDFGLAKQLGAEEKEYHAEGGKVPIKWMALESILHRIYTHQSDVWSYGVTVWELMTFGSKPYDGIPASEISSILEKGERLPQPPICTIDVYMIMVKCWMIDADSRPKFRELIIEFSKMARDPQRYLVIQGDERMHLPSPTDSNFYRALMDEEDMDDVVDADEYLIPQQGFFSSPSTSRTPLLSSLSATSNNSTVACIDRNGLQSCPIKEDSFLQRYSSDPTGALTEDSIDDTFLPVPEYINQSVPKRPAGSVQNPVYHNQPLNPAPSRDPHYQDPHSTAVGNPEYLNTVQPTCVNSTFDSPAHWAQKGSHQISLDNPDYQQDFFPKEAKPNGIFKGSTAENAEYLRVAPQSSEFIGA
Summary of the method: as §1

[20] = target: T20, PRKD1 (PKC mu, PKD1) (Homo sapiens, UniProt Q15139); details: estimated, abridged dose response curve, read-out: Kinase inhibitory activity EC50
T20 construct: purchased Invitrogen, Inc. (SelectScreen platform)
Summary of the method: as §1

[21] = target: T21, MST1R (RON) (Homo sapiens, UniProt Q04912); details: estimated, abridged dose response curve, read-out: Kinase inhibitory activity EC50
T21 construct: purchased Invitrogen (SelectScreen platform)
T21 sequence (Q04912 25-1400): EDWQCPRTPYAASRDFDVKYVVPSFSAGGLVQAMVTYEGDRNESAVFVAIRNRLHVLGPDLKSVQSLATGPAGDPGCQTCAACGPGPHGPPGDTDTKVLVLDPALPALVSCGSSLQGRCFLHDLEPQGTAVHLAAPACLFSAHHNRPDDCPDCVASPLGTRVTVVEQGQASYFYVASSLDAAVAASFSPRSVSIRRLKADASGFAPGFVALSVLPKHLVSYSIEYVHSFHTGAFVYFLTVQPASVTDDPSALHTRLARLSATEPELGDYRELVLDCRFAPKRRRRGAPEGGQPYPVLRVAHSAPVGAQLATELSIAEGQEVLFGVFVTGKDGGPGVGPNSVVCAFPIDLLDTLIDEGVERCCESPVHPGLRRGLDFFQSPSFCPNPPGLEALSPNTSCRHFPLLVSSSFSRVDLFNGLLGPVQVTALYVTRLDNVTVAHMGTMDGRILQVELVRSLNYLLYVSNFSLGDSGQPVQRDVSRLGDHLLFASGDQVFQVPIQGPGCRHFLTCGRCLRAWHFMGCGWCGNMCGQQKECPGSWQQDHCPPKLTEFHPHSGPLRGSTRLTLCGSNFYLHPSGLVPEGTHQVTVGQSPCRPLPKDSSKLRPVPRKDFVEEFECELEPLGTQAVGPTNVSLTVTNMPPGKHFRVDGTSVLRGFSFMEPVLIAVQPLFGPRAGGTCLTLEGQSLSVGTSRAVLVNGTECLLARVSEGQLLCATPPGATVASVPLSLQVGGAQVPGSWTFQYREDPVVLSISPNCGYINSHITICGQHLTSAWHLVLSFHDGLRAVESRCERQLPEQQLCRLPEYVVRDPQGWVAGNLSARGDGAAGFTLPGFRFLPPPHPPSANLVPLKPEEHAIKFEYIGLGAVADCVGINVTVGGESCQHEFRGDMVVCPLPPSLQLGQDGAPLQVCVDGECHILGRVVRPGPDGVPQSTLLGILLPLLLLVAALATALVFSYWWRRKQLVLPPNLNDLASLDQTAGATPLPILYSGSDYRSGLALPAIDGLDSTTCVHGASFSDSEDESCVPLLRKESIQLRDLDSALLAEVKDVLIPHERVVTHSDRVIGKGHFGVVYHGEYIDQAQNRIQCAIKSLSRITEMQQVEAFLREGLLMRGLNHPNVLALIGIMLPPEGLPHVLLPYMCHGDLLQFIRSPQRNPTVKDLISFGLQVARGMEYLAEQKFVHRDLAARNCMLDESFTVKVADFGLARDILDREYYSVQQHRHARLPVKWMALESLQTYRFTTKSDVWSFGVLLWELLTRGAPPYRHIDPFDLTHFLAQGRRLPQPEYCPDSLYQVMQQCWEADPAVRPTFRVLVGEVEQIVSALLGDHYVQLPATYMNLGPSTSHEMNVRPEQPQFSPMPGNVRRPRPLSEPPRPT
Summary of the method: as §1

[22] = target: T22, DCAMKL2 (DCK2) (Homo sapiens, UniProt Q8N568); details: estimated, abridged dose response curve, read-out: Kinase inhibitory activity EC50
T22 construct: purchased Invitrogen, Inc. (SelectScreen platform)
Summary of the method: as §1

[23] = target: T23, IGF1R (Homo sapiens, UniProt P08069); details: estimated, abridged dose response curve, read-out: Kinase inhibitory activity EC50
T23 construct: purchased Invitrogen (SelectScreen platform)
Summary of the method: as §1

[24] = target: T24, PRKCH (PKC eta) (Homo sapiens, UniProt P24723); details: estimated, abridged dose response curve, read-out: Kinase inhibitory activity EC50
T24 construct: purchased Invitrogen, Inc. (SelectScreen platform)
Summary of the method: as §1

[25] = target: T25, ROS1 (ROS) (Homo sapiens, UniProt P08922); details: estimated, abridged dose response curve, read-out: Kinase inhibitory activity EC50
T25 construct: purchased Invitrogen (SelectScreen)
Summary of the method: as §1

[26] = target: T26, PKN1 (PRK1) (Homo sapiens, UniProt Q16512); details: estimated, abridged dose response curve, read-out: Kinase inhibitory activity EC50
T26 construct: purchased Invitrogen, Inc. (SelectScreen platform)
Summary of the method: as §1

In the case of `CN(C)CCCNc1ccc2ncn3c4ccc5[nH]ncc5c4c(=O)c1c23` [Compound (IV)], the EC50 [1] is reported as > 5 µM, the EC50 [2] is reported as 4.05 µM and the EC50 [3] is reported as > 5 µM. The EC50 [4] was > 5 µM, the EC50 ([5]; ADRBK1 (BARK1, GRK2), estimated, abridged dose response curve, read-out: Kinase inhibitory activity EC50) was > 5 µM and the EC50 [6] was 0.822 µM. The EC50 [7] was 0.627 µM, the EC50 [8] was > 5 µM and the EC50 [9] was > 5 µM. For the same compound, the EC50 [10] was > 5 µM, the EC50 [11] was > 5 µM and the EC50 [12] was > 5 µM. It also gave an EC50 [13] of 1.58 µM, an EC50 [14] of 3.95 µM and an EC50 [15] of 2.86 µM. The EC50 [16] was > 5 µM, the EC50 [17] was > 5 µM and the EC50 [18] was > 5 µM. The EC50 [19] was > 5 µM, the EC50 [20] was 0.494 µM and the EC50 [21] was > 5 µM. The EC50 [22] was > 5 µM, the EC50 [23] was 1.56 µM and the EC50 [24] was 2.13 µM. The EC50 [25] was 2.66 µM and the EC50 [26] was 1.39 µM.
In the case of `CCN(CC)CCNc1ccc2ncn3c4ccc(O)cc4c(=O)c1c23` [Symadex, 5-(2-(diethylamino)ethylamino)-8-hydroxy-6H-imidazo[4,5,1-de]acridin-6-one, reference compound], the EC50 [1] is reported as > 5 µM, the EC50 [2] is reported as > 5 µM and the EC50 [3] is reported as > 5 µM. For the same compound, the EC50 [4] was 2.43 µM, the EC50 [5] was > 5 µM and the EC50 [6] was > 5 µM. The EC50 [7] was 1.24 µM, the EC50 [8] was > 5 µM and the EC50 [9] was > 5 µM. For the same compound, the EC50 [10] was > 5 µM, the EC50 [11] was > 5 µM and the EC50 [12] was > 5 µM. For the same compound, the EC50 [13] was > 5 µM, the EC50 [14] was > 5 µM and the EC50 [15] was 4.5 µM. The EC50 [16] was > 5 µM, the EC50 [17] was > 5 µM and the EC50 [18] was > 5 µM. The EC50 [19] was > 5 µM, the EC50 [20] was 0.217 µM and the EC50 [21] was > 5 µM. The EC50 [22] was > 5 µM, the EC50 [23] was > 5 µM and the EC50 [24] was > 5 µM. For the same compound, the EC50 [25] was > 5 µM and the EC50 [26] was 4.75 µM.

— patent US20100292231A1, “Indazole Compounds for Treating Inflammatory Disorders, Demyelinating Disorders and Cancers” (priority 2007, published 2010)
